Test results from patent publication US4299820A, “Therapeutic process employing amides of L and DL phenylglycines” (Pfizer Inc., priority 1977, dated 1981).
Square brackets hold non-standard residues; d marks the D form. Peptide text beside a SMILES is read from it. Hpg = N[C@H](C(=O)O)c1ccc(O)cc1

What was measured:
[1] = test system: pyruvate dehydrogenase enzyme; assay: Proportion of active form of pyruvate dehydrogenase (PDHa/PDHt) in hearts of fat-fed rats after treatment; type: in vivo; details: fat-fed rat heart, after 11/2 hours
Experimental: The ability of compounds of formula (II) to increase the proportion of the active form of the pyruvate dehydrogenase enzyme has been measured in the following test:
Rats fed on a high fat diet as in the previous test, are treated either with placebo or with the compound of formula (II) by subcutaneous or intravenous injection or by oral administration. After 11/2 hours the rat hearts are removed and homogenized under conditions which minimize changes in the proportion of the pyruvate dehydrogenase enzyme (PDHt) which is present in the active form, as described by Whitehouse and Randle [Biochem. J., 134, 651 (1973)]. The total amount of the enzyme present (PDHt) and the amount which is present in the active form (PDHa) are assessed by a method similar to that described by Taylor et al. [J. Biol. Chem., 248, 73 (1973)]. The fat-feeding process is found to depress the ratio PDHa/PDHt from a normal value of about 0.7 to a value in the range from 0.05 to 0.2. Treatment of fat-fed rats with the compounds of formula (II) either parenterally or orally, increases this ratio in a dose-dependent manner.

[2] = test system: diaphragm tissue from fat-fed rats; assay: Pyruvate oxidation by diaphragm tissue from fat-fed rats in vitro (14C from labelled pyruvate into CO2); set-up: species or system rat; details: diaphragm tissue from rats fed on a high fat diet
Experimental: Representative compounds of the formula (II) have been tested for their ability to increase the oxidation of glucose and/or pyruvate as follows:
Diaphragm tissue is obtained from rats fed on a high fat diet similar to `Diet B` described by Zaragoza and Felber [Horm.Metab. Res., 2, 323 (1970)]. Pyruvate oxidation by such tissue is assessed by measurement of the rate of incorporation of carbon-14 from carbon-14-labelled pyruvate into carbon dioxide in vitro, as described by Bringolf [Eur. J. Biochem., 26, 360 (1972)]. The rate of pyruvate oxidation is depressed by 50%-75% compared with that by diaphragm tissue from rats fed on a normal diet. When the compounds of the formula (II) are added to the medium, they are found to stimulate pyruvate oxidation by diaphragm tissue from fat-fed rats in a dose dependent manner.

Structure (SMILES)	PDHa/PDHt ratio, compound ([1]; Dose 1.2 mmoles/kg p.o.)	% Stimulation (pyruvate oxidation) ([2]; Concentration 0.25 mM) [%]	% Stimulation (pyruvate oxidation) ([2]; Concentration 2 mM) [%]	PDHa/PDHt ratio, compound ([1]; Dose 1.2 mmoles/kg s.c.)	PDHa/PDHt ratio, compound ([1]; Dose 0.6 mmoles/kg p.o.)	PDHa/PDHt ratio, compound ([1]; Dose 0.6 mmoles/kg s.c.)
Br.Br.N[C@H](C(=O)N[C@H](C(=O)O)c1ccc(O)cc1)c1ccc(O)cc1.N[C@H](C(=O)N[C@H](C(=O)O)c1ccc(O)cc1)c1ccc(O)cc1.O [Example 3, L,L-N-[2-(4-hydroxyphenyl)glycyl]-2-(4-hydroxyphenyl)glycine hydrobromide hemihydrate] (H-[Hpg]-[Hpg]-OH)	0.75	39	–	–	–	–
Br.COC(=O)[C@@H](NC(=O)[C@H](C)N)c1ccc(O)cc1 [Example 7, L,L-Methyl N-alanyl-2-(4-hydroxyphenyl)glycinate hydrobromide] (H-Ala-[Hpg]-OMe)	–	–	61	–	–	–
Br.COC(=O)[C@@H](NC(=O)[C@@H](N)c1ccc(O)cc1)c1ccc(O)cc1 [Example 1, L,L-Methyl N-[2-(4-hydroxyphenyl)glycyl]-2-(4-hydroxyphenyl)glycinate hydrobromide] (H-[Hpg]-[Hpg]-OMe)	1.00	23	–	–	–	–
Br.CC[C@H](C)[C@H](N)C(=O)N[C@H](C(=O)OC)c1ccc(O)cc1.O [Example 9, L,L-Methyl N-isoleucyl-2-(4-hydroxyphenyl)glycinate hydrobromide monohydrate] (H-Ile-[Hpg]-OMe)	0.24	–	35	0.48	–	–
Br.C[C@H](N)C(=O)N[C@H](C(=O)O)c1ccc(O)cc1 [Example 8, L,L-N-Alanyl-2-(4-hydroxyphenyl)glycine hydrobromide] (H-Ala-[Hpg]-OH)	–	–	23	–	0.56	0.77
Br.CC[C@H](C)[C@H](N)C(=O)N[C@H](C(=O)O)c1ccc(O)cc1 [Example 10, L,L-N-isoleucyl-2-(4-hydroxyphenyl)glycine hydrobromide] (H-Ile-[Hpg]-OH)	–	–	10	–	0.72	0.86
